Experiments:
[1] = test system: BCL-6, IRF-4, BLIMP-1, PAX5 and XBP-1; assay: Transcription factor protein expression by intracellular flow cytometry, normal B cell differentiation; assay type: cell-based, human
Protocol: (§1) Immunophenotyping For Flow Cytometric Analysis: Cells were stained using multicolor direct immunofluorescence stain for flow cytometric analysis. Surface staining was performed before cell fixation and permeabilization. Cells (50 μl; 1×10^6 cells/ml in washing buffer, 2% FBS with 0.1% NaN3 in PBS) were used for each staining. The cells were stained with isotype control mAb ([…]) and multicolor FITC-conjugated anti-CD20 mAb and PE-conjugated anti-CD38 mAb, or PerCP-Cy5.5 conjugated anti-CD44 mAb, PE-conjugated anti-CD83 mAb were used for day 4 activated B cells (CD20+CD38-cells), and day 4 PBs and day 7 PBs (CD20-CD38+), and other staining, analyzed by flow cytometry as per manufacturer's instructions. The intracellular staining of transcription factor proteins (BCL-6, IRF-4, BLIMP-1, PAX-5 and XBP-1) and IgJ was performed according to the manufacturer's recommendations. Flow cytometric analysis was performed with a FACSCanto using FACSDiva 6 (BD Biosciences). For data analysis, Flowjo (Tree Star) software was used.
B cells were cultured as described in above and cells were harvested at day 4, day 7 for immunofluoresence staining. The cells were first stained for CD20 and CD38, and after cell permeabilization, stained for BCL-6, IRF-4, BLIMP-1, PAX5 and XBP-1, then were analyzed by gating on whole lymphocytes.

MRL/MpJ-Faslpr/J mouse = MRL/MpJ-Faslpr/J mouse model of systemic lupus erythematosus; assay type: in vivo; settings: 30 mg/kg; week 4
IgJ = assay: Ig J chain intracellular staining in B cell differentiation culture; assay type: cell-based, human
Protocol: as §1
High level IgJ chain expression in rheumatoid arthritis (RA) patients predicts lack of response to rituximab.

CD19+ B cells = assay: B cell differentiation assay: CD20/CD38 phenotyping by flow cytometry; assay type: cell-based, human; settings: for CD20−CD38++ plasmablasts/plasma cells, % / CD20+CD38− activated B cells, % / CD20+CD38+ intermediated cells, %: 3 donors; for plasmablast population (CD20-CD38+): day 7, DMSO control 30.4%
Protocol: Differentiated B cells (see section 8.2.3) were harvested, counted, and aliquoted at about 1×10^6 cells or less per 4 mL tube. The cells were washed 1× with stain buffer. Next, the cells then were blocked with 10% human serum/PBS for 20-30 minutes. Following blocking, the cells were centrifuged for 5 minutes at 1200 rpm and supernatants discarded. In the 100 μL of remaining buffer, 20 μL of various BD Pharmigen flow antibodies were added according to experimental design. The cells were stained for 20-30 minutes at 4° C. Then the cells were washed 2× with stain buffer and supernatants discarded. Next, 500 μL of stain buffer or PBS was added to the tubes. The samples were immediately analyzed or put at 4° C. overnight. Cells were stained with mouse anti-human CD20 and CD38, CD19 and CD27, or respective isotype controls. All samples were analyzed using a FACSCanto flow cytometer, FACSDiva analysis software (BD Bioscience), and FlowJo Analysis software.
as §1, with “recommendations.” for “recommendations. Flow cytometric analysis was performed with a FACSCanto using FACSDiva 6 (BD Biosciences). For data analysis, Flowjo (Tree Star) software was used.”

[2] = test system: BCL-6, IRF-4, BLIMP-1, PAX5 and XBP-1; assay: Transcription factor protein expression by laser scanning cytometry (iCyte), normal B cells; assay type: cell-based, human; settings: Day 7, 20 nM
Protocol: Preparation Of Cytospin From Single Cell Suspension And Immunofluorescence Staining for iCyte: A cell suspension of not more than 0.5×10^6 cells/ml of 2% FBS-containing PBS was prepared. Up to 200 μl of this suspension was loaded in each cuvette and spinned at 800 rpm for 3 min. The cuvette and the paper were carefully detached without damaging the fresh cytospin and proceeded with either immediate fixation or drying. Unfixed cytospins were stored for max 2 days at room temperature. Cells on slides were fixed with increasing concentrations of EtOH and allowed to dry prior to staining. After blocking non-specific binding with normal serum (species same as secondary antibody), sections were incubated with the mixture of following monoclonal antibodies in a humidified chamber at cool room for overnight: (i) anti-human CD38 as plasmablast cell marker, and (ii) anti-BCL-6, IRF-4, BLIMP-1, PAX5 and XBP-1 for transcription factor proteins. After washings, slides were incubated for 1 hr at room temperature in dark with the mixture of secondary antibodies which were raised in different species (with two different fluorochromes, i.e., Alexa Fluor-488 and Alexa Fluor-633). The slides were then rinsed in PBS, counterstained with DAPI for 20 minutes at room temperature, coverslipped with anti-fade fluorescent mounting medium, and sealed with nail polish. The slides were stored in dark at 4° C. To exclude false positives produced by nonspecific binding of the secondary antibody, all of the tissues were treated in the same manner with buffer substituting for the primary antibody. The color of the antibody staining was observed and quantity was analyzed in the tissue sections using iCyte.

[3] = CD38+ plasmablast/plasma cells, listed as Compound I-S

O=C1CC[C@H](N2Cc3c(OCc4ccc(CN5CCOCC5)cc4)cccc3C2=O)C(=O)N1 [Test compound, (S)-3-[4-(4-morphlin-4-ylmethylbenzyloxy)-1-oxo-1,3-dihydro-isoindo-2-yl]piperidine-2,6-dione]
BLIMP-1 protein expression ([1]; Day 4, 20 nM): significantly decreased | IRF-4 protein expression ([1]; Day 4, 20 nM): significantly decreased | XBP-1 protein expression ([1]; Day 4, 20 nM): significantly decreased | BCL-6 protein expression ([1]; Day 7, 20 nM): significantly increased | Splenic B cells, increase (MRL/MpJ-Faslpr/J mouse): 37% | anti-double stranded DNA autoantibody level, decrease (MRL/MpJ-Faslpr/J mouse): 25% | peripheral blood B cells (MRL/MpJ-Faslpr/J mouse): no change | MFI of IgJ within the positive cells (IgJ): decreased | number of IgJ-positive cells (IgJ; Day 4, 20 nM, DMSO 13.1%±1.5%): 8.4% | number of IgJ-positive cells (IgJ; Day 4, 200 nM, DMSO 13.1%±1.5%): 5.4% | Ig J chain expression (IgJ; Day 4 B cell differentiation cultures, three donors): dose-dependently and significantly reduced | number of IgJ-positive cells (IgJ; Day 7, 20 nM, DMSO 14.4%±4.3): 13.2% | number of IgJ-positive cells (IgJ; Day 7, 200 nM, DMSO 14.4%±4.3): 7.2% | percentage of CD20+CD38- activated B cells (CD19+ B cells): increased | percentage of CD20-CD38+ plasmablasts (CD19+ B cells): dose-dependently reduced | percentage of large size cells (gate p2) (CD19+ B cells; Day 4, 2 nM, DMSO 35.5%): 31.2% | CD20−CD38++ plasmablasts/plasma cells, % (CD19+ B cells; Day 4, 20 nM, DMSO 25.9 ± 2.4): 4.8 ± 2.3% | CD20−CD38++ plasmablasts/plasma cells, % (CD19+ B cells; Day 4, 20 nM, DMSO 25.9 ± 2.4, listed as test compound): 4.8% | CD20+CD38− activated B cells, % (CD19+ B cells; Day 4, 20 nM, DMSO 42.1 ± 1.5): 57.9 ± 11.5% | CD20+CD38− activated B cells, % (CD19+ B cells; Day 4, 20 nM, DMSO 42.1 ± 1.5, listed as test compound): 57.9% | percentage of large size cells (gate p2) (CD19+ B cells; Day 4, 20 nM, DMSO 35.5%): 23.1% | percentage of large size cells (gate p2) (CD19+ B cells; Day 4, 200 nM, DMSO 35.5%): 20.4% | CD20+CD38+ intermediated cells, % (CD19+ B cells; Day 4, DMSO 14.7 ± 3.1): 18.3 ± 5.5% | percentage of large size cells (gate p2) (CD19+ B cells; Day 7, 2 nM, DMSO 34.9%): 34.9% | CD20+CD38− activated B cells, % (CD19+ B cells; Day 7, 20 nM, DMSO 12.5 ± 5.7): 50.5 ± 8.6% | CD20+CD38− activated B cells, % (CD19+ B cells; Day 7, 20 nM, DMSO 12.5 ± 5.7, listed as test compound): 50.5% | CD20−CD38++ plasmablasts/plasma cells, % (CD19+ B cells; Day 7, 20 nM, DMSO 54.8 ± 5.0): 9.7 ± 5.4% | CD20−CD38++ plasmablasts/plasma cells, % (CD19+ B cells; Day 7, 20 nM, DMSO 54.8 ± 5.0, listed as test compound): 9.7% | percentage of large size cells (gate p2) (CD19+ B cells; Day 7, 20 nM, DMSO 34.9%): 19.9% | percentage of large size cells (gate p2) (CD19+ B cells; Day 7, 200 nM, DMSO 34.9%): 11.94% | CD20+CD38+ intermediated cells, % (CD19+ B cells; Day 7, DMSO 22.8 ± 5.1): 23 ± 7.7% | plasmablast population (CD20-CD38+) (CD19+ B cells; 2 nM): 27.3% | plasmablast population (CD20-CD38+) (CD19+ B cells; 20 nM): 2.1% | plasmablast population (CD20-CD38+) (CD19+ B cells; 200 nM): 0.4% | large size cell population (gate p2) (CD19+ B cells; normal B cell differentiation assay): dose-dependently depleted | BCL-6 expression ([2]; CD38+ plasmablast/plasma cells): significantly increased | BLIMP-1 expression ([2]; CD38+ plasmablast/plasma cells): decreased | IRF-4 expression ([2]; CD38+ plasmablast/plasma cells): decreased | PAX-5 expression ([2]; CD38+ plasmablast/plasma cells): decreased | BCL-6 expression [2, 3]: increased | BLIMP-1 expression [2, 3]: reduced | IRF-4 expression [2, 3]: reduced | XBP-1 expression ([2]; both cell populations): no change | BCL-6 expression ([2]; whole lymphocyte population): significantly increased | BLIMP-1 expression ([2]; whole lymphocyte population): decreased | IRF-4 expression ([2]; whole lymphocyte population): decreased
